Data: PubChem BioAssay AID540271 (Broad Institute, 2011)
The source made the active and inactive calls. The rule behind the calls is not given here.

System: S. cerevisiae expressing PfHSP40, growth rescue, plate reader
Experiment: Yeast growth rescue from Plasmodium falciparum HSP40 toxicity, dose response confirmatory, plate reader (AID 540271);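 note: yeast growth read after three days of incubation at 30 °C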

Compound	AC50
Cc1ccc(C2(c3ccc(C)cc3)CC2C(=O)Nc2ccc([N+](=O)[O-])cc2O)cc1 (centres undefined)	5.44 µM
O=C(NC1=CC(=O)c2ccccc2C1=O)c1ccccc1	7.77 µM
O=C(c1ccccc1)N1C(=O)C(c2ccccc2)Oc2ccccc21 (centres undefined)	0.937 µM
COc1cc(NS(=O)(=O)c2ccc(C)cc2)c2ncccc2c1	5.4 µM
Cc1cc(/C=N/n2cnnc2)c(C)n1-c1ccc(OCc2ccc(F)cc2)cc1	4.69 µM
Cc1cc(C(=O)COC(=O)Cc2n[nH]c(=O)c3ccccc23)c(C)n1-c1cccc(C(F)(F)F)c1	6.72 µM
S=C(NCc1ccco1)Nc1ccc(Oc2ccc(Cl)cc2)cc1	7.02 µM
CC(C)C(=O)NC(c1ccco1)c1ccc2cccnc2c1O (centres undefined)	4.51 µM
Cc1ccc(S(=O)(=O)Nc2ccc(O)c3cccnc23)cc1	> 12 µM (inactive)
Oc1ccc(-c2nc3ccccc3s2)c(O)c1	7.43 µM
O=C(/C(=N/N=C/c1ccc(O)c(O)c1O)c1ccccc1)c1ccccc1	6.09 µM
Cc1ccc(NC(=S)c2nc3ccccc3[nH]2)c(C)c1	6.15 µM
Clc1ccc(C2=NCCN2)cc1	2.38 µM
O/N=C/c1cc(Br)ccc1OCc1cccc(F)c1	6.89 µM
O=[N+]([O-])c1ccc(S(=O)(=O)c2ccccc2)nc1	2.23 µM
Nc1nc(-c2ccccc2)c(-c2ccc([N+](=O)[O-])cc2)s1	3.99 µM
O=C1C(Nc2ccccc2)=C/C(=N/S(=O)(=O)c2cccs2)c2ccccc21	3.48 µM
CC(C)=CCc1c(O)ccc(C(=O)Cc2ccccc2)c1O	10.8 µM
Cc1cc(C(=O)N/N=C/c2ccc(O)c(O)c2O)c(C)n1-c1ccccc1	3.41 µM
C=CCc1ccc(O)c(-c2ccc(O)c(CC=C)c2)c1	4.8 µM
CCCCC(=O)NC(c1ccc(OC)c(OC)c1)c1ccc2cccnc2c1O (centres undefined)	1.83 µM
COc1ccc(C2=CC(=O)C[C@H](c3ccc4c(c3)OCO4)C2)cc1	6.93 µM
C(=C1c2ccccc2-c2ccccc21)c1ccncc1	6.18 µM

Compound	AC50
CCc1nc2ccccc2c(=O)n1NC(=O)c1c(O)c2ccccc2n(CC)c1=O	5.74 µM
CC[C@@H](C(=O)[C@@H](C)[C@@H](O)[C@H](C)[C@@H]1O[C@@H]([C@@H](CC)C(=O)O)CC[C@@H]1C)[C@H]1O[C@]2(C=C[C@@H](O)[C@]3(CC[C@@](C)([C@H]4CC[C@](O)(CC)[C@H](C)O4)O3)O2)[C@H](C)C[C@@H]1C	3 µM
CC(C)NC(=O)NC(=O)COC(=O)c1ccc([N+](=O)[O-])cc1Cl	12 µM
COc1cc2c(c(OC)c1OC)-c1ccc(O)c(=O)cc1[C@@H](N)CC2	2.52 µM
Clc1ccccc1C(c1ccccc1)(c1ccccc1)n1ccnc1	0.387 µM
COc1cccc(/C=N/Nc2ncc(C(F)(F)F)cc2Cl)c1O	1.49 µM
COC(=O)C1=C(C)NC(C)=C(C(=O)OCC(C)C)C1c1ccccc1[N+](=O)[O-] (centres undefined)	5.87 µM
CC(=O)C1=C(c2cccc([N+](=O)[O-])c2)N(C(C)=O)n2c(C)nnc2S1	2.7 µM
Oc1c(Cl)c(Cl)c(Cl)c(Cl)c1Cl	2.89 µM
O=C(C=Cc1cccc(O)c1)c1ccccc1O	2.1 µM
COc1cccc2c1C(=O)c1c(O)c3c(c(O)c1C2=O)CC(O)(C(C)=O)CC3OC1CC(N(C)C)C(O)C(C)O1 (centres undefined)	1.41 µM
COc1ccc(N(C(=O)c2ccncc2)S(=O)(=O)c2ccccc2)cc1	2.4 µM
COc1cccc(C(=O)Nc2sc(C(C)C)cc2C(N)=O)c1OC	5.46 µM
COc1ccccc1N(C)S(=O)(=O)c1ccc(Cl)c(C(=O)NNC(=O)c2ccccc2O)c1	2.64 µM
O=C(CSc1nnc(-c2ccccc2O)n1Cc1ccccc1)NNC(=O)c1ccccc1O	3.94 µM
CCCSC(=S)c1c(C)[nH]n(-c2ccccc2)c1=O	5.46 µM
Cc1ccc(S(=O)(=O)N(C(=O)c2ccncc2)c2ccc(OC(=O)c3ccncc3)cc2)cc1	1.83 µM
CCOC(=O)c1ccc(N2C(=O)CC(N(C)CCc3ccc(OC)c(OC)c3)C2=O)cc1 (centres undefined)	5.96 µM
O=C(N/N=C(\c1ccccc1)c1cccnc1)c1cccc(F)c1	4.97 µM
COc1cc2c(c(OC)c1OC)-c1ccc(O)c(=O)cc1[C@@H](NC(C)=O)CC2	1.87 µM
Cc1[nH]n(-c2ccccc2)c(=O)c1/C=N/Nc1nncc(-c2ccccc2)n1	7.15 µM
C[C@@]12CCC3[C@@](CCC4[C@@]3(C)CCC[C@@]4(C)C(=O)NCc3ccccc3)(CC1=O)C2 (some centres undefined)	1.43 µM
O=S(=O)(Nc1nc2ccccc2nc1N1CCN(c2ccccn2)CC1)c1ccc(Cl)cc1	1.79 µM

Compound	AC50
Clc1ccc(C(Cn2ccnc2)OCc2c(Cl)cccc2Cl)c(Cl)c1 (centres undefined)	0.241 µM
O=C1C(=C(I)I)c2ccccc2-c2ccccc21	5.61 µM
CCCCCCCn1c(=O)c(C(=O)OC)c(N)c2ccccc21	4.64 µM
CC(CNC(=O)COc1ccccc1)OC(=O)Nc1ccc(Cl)c(Cl)c1 (centres undefined)	6.12 µM
CCCCCCCc1ccc(-c2ccc(O)cc2)nc1	5.12 µM
Cc1ccc(NC2=C(NC(=O)c3ccccc3)C(=O)c3ccccc3C2=O)cc1Cl	7.65 µM
CCCCc1ccc(-n2c(Cc3cccs3)n[nH]c2=S)cc1	6.45 µM
Cc1cc(NS(=O)(=O)c2ccc(C3CCCCC3)cc2)no1	5.38 µM
Cc1ccc(C)c(S(=O)(=O)N2CCN(Cc3ccc(O)c4ncccc34)CC2)c1	5.23 µM
Cc1csc(NC(=O)C(C)Oc2ccc(Cl)cc2C)n1 (centres undefined)	8.4 µM
CCCOc1ccc(S(=O)(=O)n2cc(F)c(=O)[nH]c2=O)cc1	3.66 µM
O=CC1=C(c2ccccc2)Oc2ccccc2O1	2.78 µM
CN(C)S(=O)(=O)c1cccc(NC(=S)NNC(=O)c2cc3ccccc3cc2O)c1	2.86 µM
CCC(=O)NC(c1cc(Cl)c2cccnc2c1O)C(C)C (centres undefined)	5.29 µM
CCC(C)Sc1cccc(-c2nc3ccccn3c2NCc2ccccc2)c1 (centres undefined)	7.22 µM
CCCCOC(=O)/C=C/c1ccc(OC(=O)OC)c(OC(=O)OC)c1	5.54 µM
CCCC(C)Sc1nc2c([nH]1)c(=S)n(C)c(=O)n2C (centres undefined)	8.18 µM
CCC(NC(=S)NCc1ccc(F)cc1)c1ccc(C(C)C)cc1 (centres undefined)	5.15 µM
CCOC(=O)c1cnc(-n2nc(C)cc2C)nc1NC1CCCC1	7.65 µM
O=[N+]([O-])c1cc(Cl)cc(/C=N/NC(=S)Nc2ccc(S(=O)(=O)N3CCOCC3)cc2)c1O	3.13 µM
FC(F)(F)c1cccc(N2CCc3cn[nH]c32)c1	0.446 µM
c1ccc(Cn2cc(-c3cccnc3)cn2)cc1	1.62 µM
O=C(CSc1nc2ccccc2s1)N/N=C/c1cc([N+](=O)[O-])ccc1O	5.52 µM

Compound	AC50
O=c1[nH]cc(F)c(=O)[nH]1	0.562 µM
COc1ccc2cnn(CCOc3cc(C)ccc3C(C)C)c(=O)c2c1OC	5.9 µM
O=C(Nc1cc(Oc2ccc(Cl)cc2)cc([N+](=O)[O-])c1)c1ccco1	> 12 µM (inactive)
CCCCC(=O)NC(c1ccc(N(C)C)cc1)c1ccc2cccnc2c1O (centres undefined)	1.65 µM
CCc1ccc(C(C)NC(=S)NC2CCCCC2)cc1 (centres undefined)	7.1 µM
O=Nc1c(O)n(Cc2ccc(Cl)c(Cl)c2)c2ccccc12	6.59 µM
O=[N+]([O-])c1ccc(Sc2cccc[n+]2[O-])c2nonc12	2.43 µM
CCc1ccccc1OCC(=O)Nc1nc(-c2cccnc2)cs1	1.84 µM
Fc1ccc(CCNC(=S)Nc2ccc(F)c(Cl)c2)cc1	7.64 µM
CC(C)CN=Cc1c(O)c([N+](=O)[O-])cc2oc3c(c12)CCCC3	1.33 µM
Cc1nc2ccc(C(=O)NCc3ccc4c(c3)OCO4)cc2s1	4.51 µM
CC(C)(C)C(=O)C(Cl)C(=O)Nc1ccccc1 (centres undefined)	5.65 µM
O=c1c2ccccc2nc(-c2cccc(Cl)c2)n1O	3.21 µM
C=CCn1c(-c2cc(-c3ccc(C)cc3)nc3ccccc23)n[nH]c1=S	5.81 µM
O=c1c(O)c(-c2ccccc2)oc2ccccc12	5.37 µM
Clc1ccc(OCc2nc(-c3ccncc3)no2)c(Br)c1	6.2 µM
Cc1ccc(C(=O)C(SC(C)(C)C)n2cncn2)cc1 (centres undefined)	5.78 µM
O=C1c2ccccc2-n2c1nc1ccccc1c2=O	1.83 µM
O=C(CSc1ccc(-c2ccccn2)nn1)c1ccccc1	2.48 µM
O=c1c(Cl)c(Cl)cnn1Cc1nnc(-c2ccc(Cl)cc2)o1	7.45 µM
CC(=O)NC(c1ccc(C)cc1)c1cc([N+](=O)[O-])c2cccnc2c1O (centres undefined)	8.83 µM
COc1ccc2[nH]c(=O)c(CN(Cc3cccnc3)C(=O)Nc3ccccc3)cc2c1	6.16 µM
CN(Cc1ccc(Cl)s1)C(=O)CCl	6.37 µM

Compound	AC50
O=C(OCC(=O)C12CC3CC(CC(C3)C1)C2)c1ccc(O)cc1	1.69 µM
CCN(CC)c1ccc(/C=N/NC(=O)c2c(Cl)cnn2C)c(O)c1	4.78 µM
CC1(C(=O)OCC(=O)Nc2ccc3ccccc3c2)CC1(Cl)Cl (centres undefined)	9.6 µM
Cc1cc(C)c(OCC(=O)Nc2nc(-c3ccccn3)cs2)c(C)c1	4.34 µM
Cc1nnc(N/N=C/c2cccc(OCc3ccc(Cl)c(Cl)c3)c2)n1N	> 12 µM (inactive)
CCCCCCCCCCOC(=O)Cn1c(COc2ccccc2OC)[n+](C)c2ccccc21	6.39 µM
Oc1c(C(Nc2cccc(C(F)(F)F)c2)c2ccncc2)ccc2cccnc12 (centres undefined)	1.92 µM
COc1cccc(/C=N/NC(=O)c2cc(-c3cccn3C)n[nH]2)c1O	10.2 µM
COc1ccc(N(C)S(=O)(=O)c2ccc(Cl)c(C(=O)NNC(=O)c3ccccc3O)c2)cc1	2.52 µM
Cc1cccc(NS(=O)(=O)c2ccc(-c3cnc(C4CC4)o3)cc2)c1C	5.32 µM
O=C1c2ccccc2NC(c2ccc(-c3ccc(F)cc3)o2)N1O (centres undefined)	8.42 µM
CCc1cc(SC#N)cc(C)c1NC(=O)CCl	4.4 µM
COc1ccc(O)c(C(=O)CC(=O)c2ccccc2C)c1	6.31 µM
Cc1csc2nc(O)c(C(=O)NCCCc3ccccc3)c(=O)n12	4.55 µM
Cc1cc(C)c2sc(NNC(=O)c3ccc(S(=O)(=O)N4CCc5ccccc5C4)cc3)nc2c1	1.48 µM
Cc1onc(-c2ccccc2)c1C(=O)NC(=S)NNC(=O)c1cc(-c2ccc(F)cc2)n[nH]1	> 4.2 µM (inactive)
COc1ccc(OC)c2c1C(=O)C(Cl)=C(Cl)C2=O	1.4 µM
COC(=O)COC(=O)c1ccccc1NC(=O)c1ccccc1	3.13 µM
O=C(c1ccc(-c2ccccc2)c(F)c1)C1CCCN(C(=O)c2cncs2)C1 (centres undefined)	5.68 µM
Cc1nc2c(o1)C(=O)c1ccccc1C2=Nc1ccccc1	5.02 µM
O=C(Nc1cccc(-c2nc3ccccc3s2)c1)c1cccs1	5.98 µM
O=c1c2ccccc2nc(-c2ccc(-c3ccccc3)cc2)n1-c1ccncc1	6.21 µM
